Reference: ChEMBL document CHEMBL1133963, “Furans with basic side chains: synthesis and biological evaluation of a novel series of antagonists with selectivity for the estrogen receptor alpha” (Bioorg Med Chem Lett, 2001)

Columns and labels:
[1] = molecular target: T1, Estrogen receptor beta (Homo sapiens, UniProt Q92731); experiment: Displacement of [3H]estradiol from Estrogen receptor beta
[2] = molecular target: T2, Estrogen receptor (Homo sapiens, UniProt P03372); experiment: Displacement of [3H]estradiol from Estrogen receptor alpha
T2 sequence (P03372 whole entry): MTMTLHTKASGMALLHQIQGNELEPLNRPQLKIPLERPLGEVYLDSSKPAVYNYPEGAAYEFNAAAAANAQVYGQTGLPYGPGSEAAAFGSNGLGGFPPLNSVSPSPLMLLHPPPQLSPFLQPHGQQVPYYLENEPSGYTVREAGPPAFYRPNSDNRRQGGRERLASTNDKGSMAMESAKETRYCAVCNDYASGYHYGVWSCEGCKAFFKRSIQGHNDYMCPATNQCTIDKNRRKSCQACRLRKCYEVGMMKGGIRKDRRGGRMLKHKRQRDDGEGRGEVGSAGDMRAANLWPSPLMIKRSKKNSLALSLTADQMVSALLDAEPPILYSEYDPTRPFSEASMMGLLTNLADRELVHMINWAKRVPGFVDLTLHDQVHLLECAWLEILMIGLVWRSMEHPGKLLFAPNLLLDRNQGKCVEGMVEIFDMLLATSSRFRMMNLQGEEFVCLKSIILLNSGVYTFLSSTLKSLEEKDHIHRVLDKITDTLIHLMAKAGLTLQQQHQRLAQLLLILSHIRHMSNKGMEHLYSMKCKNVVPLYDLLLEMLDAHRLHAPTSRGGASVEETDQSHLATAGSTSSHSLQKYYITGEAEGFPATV

[3] = molecular target: T1, Estrogen receptor beta; experiment: Inhibitory activity against Estrogen receptor beta
[4] = molecular target: T2, Estrogen receptor; experiment: Inhibitory activity against Estrogen receptor alpha

T1 sequence (Q92731 whole entry): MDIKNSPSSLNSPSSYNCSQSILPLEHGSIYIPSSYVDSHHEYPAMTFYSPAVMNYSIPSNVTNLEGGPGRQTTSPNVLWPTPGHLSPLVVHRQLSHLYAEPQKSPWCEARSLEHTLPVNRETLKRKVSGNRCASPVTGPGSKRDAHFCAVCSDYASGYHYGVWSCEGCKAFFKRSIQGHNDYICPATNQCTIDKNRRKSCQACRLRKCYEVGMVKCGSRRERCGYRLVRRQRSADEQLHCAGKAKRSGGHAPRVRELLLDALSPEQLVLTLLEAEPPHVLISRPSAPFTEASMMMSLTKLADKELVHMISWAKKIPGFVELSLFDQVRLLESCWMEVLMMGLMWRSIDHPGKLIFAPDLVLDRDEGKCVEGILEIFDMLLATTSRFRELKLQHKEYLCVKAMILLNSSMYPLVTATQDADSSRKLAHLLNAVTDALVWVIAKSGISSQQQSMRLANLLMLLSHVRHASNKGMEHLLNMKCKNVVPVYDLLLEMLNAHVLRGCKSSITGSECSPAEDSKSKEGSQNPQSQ

| SMILES | RBA [1] [%] | RBA [2] [%] | IC50 [3] [nM] | IC50 [4] [nM] |
| --- | --- | --- | --- | --- |
| Cc1c(-c2ccc(O)cc2)oc(-c2ccc(O)cc2)c1-c1ccc(OCCN2CCCCC2)cc1 | 0.47 | 32 | – | – |
| CCc1c(-c2ccc(OCCN3CCCCC3)cc2)oc(-c2ccc(O)cc2)c1-c1ccc(O)cc1 | 0.06 | 0.36 | – | – |
| CCc1c(-c2ccc(O)cc2)oc(-c2ccc(O)cc2)c1-c1ccc(OC)cc1 | 0.91 | 2.5 | – | – |
| CCc1c(-c2ccc(O)cc2)oc(-c2ccc(O)cc2)c1-c1ccc(OCCN2CCCCC2)cc1 | 3.1 | 75 | 480 | 65 |
| CCc1c(-c2ccc(O)cc2)oc(-c2ccccc2)c1-c1ccc(OCCN2CCCCC2)cc1 | 0.43 | 3.8 | – | – |
| CCc1c(-c2ccccc2)oc(-c2ccc(O)cc2)c1-c1ccc(OCCN2CCCCC2)cc1 | 20 | 60 | – | – |
| CCCc1c(-c2ccc(O)cc2)oc(-c2ccc(O)cc2)c1-c1ccc(OCCN2CCCCC2)cc1 | 4 | 34 | – | – |
